In brackets after ≈: the same amount, converted by molar mass.

The test has as its system quinolone resistant strain laboratory S7. In words: Growth of quinolone resistant strain S7 with ciprofloxacin and CB101 forms. The format is cell-based. To be noted: Staphylococcus. As for the experimental part:
The quinolone resistant strain laboratory S7 was tested for growth in the presence of ciprofloxacin at 0.5 μg/mL (MIC at 1 μg/mL) with 20 μg/mL of CB101 (racemic mixture), the (+) enantiomeric form of CB101 or the (−) enantiomeric form of CB101.

On to `O=C(O)c1cn(C2CC2)c2cc(N3CCNCC3)c(F)cc2c1=O` [ciprofloxacin], for which the MIC was 1 µg/mL (≈ 3.02 µM).

Broadly, the MIC is the lowest concentration found to suppress growth.

These data come from patent US20100234348A1, “COMPOSITIONS AND METHODS FOR POTENTIATING ANTIBIOTIC ACTIVITY” (TRUSTEES OF BOSTON UNIVERSITY, priority 2006, published 2010).
